Results taken from US12145947B2, “Pyrimidine based modulators and uses thereof” (Quanta Therapeutics, Inc., priority 2022, dated 2024).
pIC50: −log10 of the molar value.

Legend:
KRAS G12D/RAF1 = biological target: T1, KRAS G12D/RAF1 (Homo sapiens, UniProt P01116, G12D); test: Protein-protein interaction (PPI) HTRF assay KRAS G12D/RAF1; format: binding
T1 construct: His6-MBP (N, cleaved yes); made in house; host or cells: E. coli
How it was run: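 HTRF pairing of His-tagged RAF1 (52-131) plus Tb-cryptate donor with GppNHp-exchanged biotin-RAS (KRAS 1-169 wt/G12D/G12V, NRAS wt) plus streptavidin-d2 acceptor; compound sits 30 min with RAS first, then 1 h RT with RAF1. IC50 derived from 665/615 ratio, untagged RAF1 defining full inhibition.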

[1] = tested on: GP2D cells (KRAS G12D), phospho-ERK; test: pERK In Cell Western (ICW) assay, GP2D cells; format: cell-based; settings: Table 4, 3 hours
Description: pERK ICW is a high throughput screening assay to evaluate the cellular potency of mutant KRAS small molecule inhibitors. KRAS mutant cell lines AGS and GP2D (KRAS^G12D) were purchased from ATCC and maintained respectively in RPMI and DMEM medium supplemented with 10% fetal bovine serum and Penicillin/Streptomycin.
Cells grown in exponential phase were trypsinized, resuspended in fresh media, and viable cells were counted using a cell counter with Trypan Blue (BioRad TC20). Cells were seeded into 384-well plate (Greiner 781091) at density of 5,000 cells/well for AGS and 10,000 cells/well for GP2D and allowed to grow overnight in a 37° C. CO2 incubator. The next day, compounds were dispensed into wells with a ½ log, 10-point serial dilution and top concentration of […] using Tecan D300e dispenser and incubated for 3 hours in a 37° C. CO2 incubator. Cells were then fixed with paraformaldehyde (Electron Microscopy Sciences, 15710, 4% final concentration) for 30 min, permeabilized with wash buffer (1×PBS+0.1% Triton X-100) for 30 min and blocked with Odyssey blocking buffer (Li—COR 927-70001) for 1 hour, all at room temperature (RT). Phospho-ERK antibody (CST 4370L) was diluted 1:500 in Odyssey blocking+0.2% Tween 20 and incubated with cells overnight at 4° C. The next day, plates were washed 5× with wash buffer, incubated with IRDye 800 CW, Goat anti-Rabbit secondary antibody (Li—COR 926-32211, 1:500) and DRAQ5 (CST 4084L, 1:5,000) diluted in Odyssey blocking+0.2% Tween 20 for 1 hour, washed 5×, and imaged on an Odyssey CLx imaging system.
For data analysis, signal intensities from 800 (phosphor-ERK) and 700 (DRAQ5) channels were extracted, and phospho-ERK signals were normalized to DRAQ5 signals for each well and percent of DMSO control values were computed. Data were then imported into Graphpad Prism to compute half-maximal inhibitory concentrations (IC50) using a 4-parameter variable slope model. Z-factor for each plate was computed from signals derived from wells treated with either DMSO or […] of Trametinib. AGS pERK ICW (Method B) IC50 (uM) values of selected compounds are depicted in Table 2 with compounds having a value 0.001 uM to 0.01 uM as ++++; >0.01 uM to 0.1 uM as +++; >0.1 uM to 1 uM as ++; 1 uM to 10 uM as + and >10 uM as NA.

T1 sequence (P01116 with tags, fused parts or gaps isoform P01116-2 G12D): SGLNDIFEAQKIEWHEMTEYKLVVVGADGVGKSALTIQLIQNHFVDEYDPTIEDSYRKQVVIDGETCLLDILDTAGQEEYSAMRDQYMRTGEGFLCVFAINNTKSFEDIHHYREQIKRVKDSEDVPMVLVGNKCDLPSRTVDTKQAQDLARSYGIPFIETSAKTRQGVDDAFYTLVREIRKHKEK

Structure (SMILES)	pIC50 (KRAS G12D/RAF1; Table 4)	pIC50 [1]	pIC50 (KRAS G12D/RAF1; Table 4, listed as 74.2)	pIC50 ([1]; listed as 74.2)
CN(C)CC1(COc2nc(N3C[C@H]4CC[C@@H](C3)N4)c(C#N)c(N3CC4(CCc5sc(N)c(C#N)c54)C3)n2)CC1(F)F (mixture of isomers) [Compound 74, 2-amino-1′-[5-cyano-6-(3,8-diazabicyclo[3.2.1]octan-3-yl)-2-[[1-[(dimethylamino)methyl]-2,2-difluoro-cyclopropyl]methoxy]pyrimidin-4-yl]spiro[5,6-dihydrocyclopenta[b]thiophene-4,3′-azetidine]-3-carbonitrile]	4.00 to 5.00	5.00 to 6.00		
C[C@@]1(O)CCCN(c2nc(OC[C@@]34CCCN3C[C@H](F)C4)nc(N3CC4(CCc5sc(N)c(C#N)c54)C3)c2C#N)C1 [Compound 27, 2-amino-1′-[5-cyano-2-[[(2R,8S)-2-fluoro-1,2,3,5,6,7-hexahydropyrrolizin-8-yl]methoxy]-6-[(3R)-3-hydroxy-3-methyl-1-piperidyl]pyrimidin-4-yl]spiro[5,6-dihydrocyclopenta[b]thiophene-4,3′-azetidine]-3-carbonitrile]	5.00 to 6.00	6.00 to 7.00		
N#Cc1c(N2CCCC(O)CC2)nc(OC[C@@]23CCCN2C[C@H](F)C3)nc1N1CC2(CCc3sc(N)c(C#N)c32)C1 (stereo partly drawn) [Compound 40, 2-amino-1′-[5-cyano-6-(4-hydroxyazepan-1-yl)-2-[[(2R,8S)-2-fluoro-1,2,3,5,6,7-hexahydropyrrolizin-8-yl]methoxy]pyrimidin-4-yl]spiro[5,6-dihydrocyclopenta[b]thiophene-4,3′-azetidine]-3-carbonitrile]	5.00 to 6.00	6.00 to 7.00		
N#Cc1c(N2CC3COCC(C2)N3)nc(OC[C@]23CCCN2C[C@@H](F)C3)nc1N1CC2(CCc3sc(N)c(C#N)c32)C1 [Compound 43, 2-amino-1′-[5-cyano-2-[[(2S,8R)-2-fluoro-1,2,3,5,6,7-hexahydropyrrolizin-8-yl]methoxy]-6-(3-oxa-7,9-diazabicyclo[3.3.1]nonan-7-yl)pyrimidin-4-yl]spiro[5,6-dihydrocyclopenta[b]thiophene-4,3′-azetidine]-3-carbonitrile]	5.00 to 6.00	6.00 to 7.00		
N#Cc1c(N2CCCC(=O)CC2)nc(OC[C@@]23CCCN2C[C@H](F)C3)nc1N1CC2(CCc3sc(N)c(C#N)c32)C1 [Compound 49, 2-amino-1′-[5-cyano-2-[[(2R,8S)-2-fluoro-1,2,3,5,6,7-hexahydropyrrolizin-8-yl]methoxy]-6-(4-oxoazepan-1-yl)pyrimidin-4-yl]spiro[5,6-dihydrocyclopenta[b]thiophene-4,3′-azetidine]-3-carbonitrile]	4.00 to 5.00	6.00 to 7.00		
N#Cc1c(N2C[C@H]3CC[C@@H](C2)N3)nc(OCC2(CN3CC[S+]([O-])CC3)CC2)nc1N1CC2(CCc3sc(N)c(C#N)c32)C1 [Compound 71, 2-amino-1′-[5-cyano-6-[(1R,5S)-3,8-diazabicyclo[3.2.1]octan-3-yl]-2-[[1-[(1-oxo-1,4-thiazinan-4-yl)methyl]cyclopropyl]methoxy]pyrimidin-4-yl]spiro[5,6-dihydrocyclopenta[b]thiophene-4,3′-azetidine]-3-carbonitrile]	5.00 to 6.00	6.00 to 7.00		
N#Cc1c(N2C[C@H]3CC[C@@H](C2)N3)nc(OCC2(CN3CCOCC3)CC2)nc1N1CC2(CSc3sc(N)c(C#N)c32)C1 [Compound 73, 5-amino-1′-[5-cyano-2-[[1-(morpholinomethyl)cyclopropyl]methoxy]-6-[(1R,5S)-3,8-diazabicyclo[3.2.1]octan-3-yl]pyrimidin-4-yl]spiro[2H-thieno[2,3-b]thiophene-3,3′-azetidine]-4-carbonitrile]	6.00 to 7.00	8.00 to 9.00		
CN(C)CC1(COc2nc(N3CC4CCC(C3)N4)c(C#N)c(N3CC4(CCc5sc(N)c(C#N)c54)C3)n2)CC1(F)F (stereo not drawn) [Compound 74B, 2-amino-1′-[5-cyano-6-(3,8-diazabicyclo[3.2.1]octan-3-yl)-2-[[(1*)-1-[(dimethylamino)methyl]-2,2-difluoro-cyclopropyl]methoxy]pyrimidin-4-yl]spiro[5,6-dihydrocyclopenta[b]thiophene-4,3′-azetidine]-3-carbonitrile]			4.00 to 5.00	5.00 to 6.00
N#Cc1c(N2CCCn3nc(-c4ccccn4)c(Cl)c3C2)nc(OCC2(CN3CCOCC3)CC2)nc1N1CC2(CCc3sc(N)c(C#N)c32)C1 [Compound 75, 2-amino-1′-[6-[3-chloro-2-(2-pyridyl)-4,6,7,8-tetrahydropyrazolo[1,5-a][1,4]diazepin-5-yl]-5-cyano-2-[[1-(morpholinomethyl)cyclopropyl]methoxy]pyrimidin-4-yl]spiro[5,6-dihydrocyclopenta[b]thiophene-4,3′-azetidine]-3-carbonitrile]	6.00 to 7.00	7.00 to 8.00		
N#Cc1c(N2C[C@H]3CC[C@@H](C2)N3)nc(OCc2ccccc2)nc1N1CC2(CCc3sc(N)c(C#N)c32)C1 [Compound 76, 2-amino-1′-[2-benzyloxy-5-cyano-6-[(1R,5S)-3,8-diazabicyclo[3.2.1]octan-3-yl]pyrimidin-4-yl]spiro[5,6-dihydrocyclopenta[b]thiophene-4,3′-azetidine]-3-carbonitrile]	6.00 to 7.00	7.00 to 8.00		
N#Cc1c(N2C[C@H]3CC[C@@H](C2)N3)nc(OC[C@@H]2CCN2CC(F)(F)F)nc1N1CC2(CCc3sc(N)c(C#N)c32)C1 [Compound 92, 2-amino-1′-[5-cyano-6-[(1R,5S)-3,8-diazabicyclo[3.2.1]octan-3-yl]-2-[[(2S)-1-(2,2,2-trifluoroethyl)azetidin-2-yl]methoxy]pyrimidin-4-yl]spiro[5,6-dihydrocyclopenta[b]thiophene-4,3′-azetidine]-3-carbonitrile]	4.00 to 5.00	5.00 to 6.00		
C=C1CN2CCCC2(COc2nc(N3CCCn4nc(C(=O)N(C)C)c(Cl)c4C3)c(C#N)c(N3CC4(CCc5sc(N)c(C#N)c54)C3)n2)C1 (stereo not drawn) [Compound 93, 5-[6-(2-amino-3-cyano-spiro[5,6-dihydrocyclopenta[b]thiophene-4,3′-azetidine]-1′-yl)-5-cyano-2-[(6-methylene-2,3,5,7-tetrahydro-1H-pyrrolizin-8-yl)methoxy]pyrimidin-4-yl]-3-chloro-N,N-dimethyl-4,6,7,8-tetrahydropyrazolo[1,5-a][1,4]diazepine-2-carboxamide]	6.00 to 7.00	8.00 to 9.00		
C=C1CN2CCCC2(COc2nc(N3C[C@H]4CC[C@@H](C3)N4)c(C#N)c(N3CC4(CCc5sc(N)c(C#N)c54)C3)n2)C1 (stereo partly drawn) [Compound 94, 2-amino-1′-[5-cyano-2-[(6-methylene-2,3,5,7-tetrahydro-1H-pyrrolizin-8-yl)methoxy]-6-[(1R,5S)-3,8-diazabicyclo[3.2.1]octan-3-yl]pyrimidin-4-yl]spiro[5,6-dihydrocyclopenta[b]thiophene-4,3′-azetidine]-3-carbonitrile]	> 7.00	8.00 to 9.00		
CN(C)CC1(COc2nc(N3CCCn4nc(C(=O)N(C)C)c(Cl)c4C3)c(C#N)c(N3CC4(CCCc5sc(N)c(C#N)c54)C3)n2)CC1(F)F (stereo not drawn) [Compound 96, 5-[6-(2-amino-3-cyano-spiro[6,7-dihydro-5H-benzothiophene-4,3′-azetidine]-1′-yl)-5-cyano-2-[[1-[(dimethylamino)methyl]-2,2-difluoro-cyclopropyl]methoxy]pyrimidin-4-yl]-3-chloro-N,N-dimethyl-4,6,7,8-tetrahydropyrazolo[1,5-a][1,4]diazepine-2-carboxamide]	5.00 to 6.00	7.00 to 8.00		
Cn1nccc1COc1nc(N2C[C@H]3CC[C@@H](C2)N3)c(C#N)c(N2CC3(CCc4sc(N)c(C#N)c43)C2)n1 [Compound 97, 2-amino-1′-[5-cyano-2-[(2-methylpyrazol-3-yl)methoxy]-6-[(1R,5S)-3,8-diazabicyclo[3.2.1]octan-3-yl]pyrimidin-4-yl]spiro[5,6-dihydrocyclopenta[b]thiophene-4,3′-azetidine]-3-carbonitrile]	4.00 to 5.00	6.00 to 7.00		
